Molecules are shown by their SMILES.

For experiment [1], the target named is 3',5'-cyclic-AMP phosphodiesterase 4D (Homo sapiens, UniProt Q08499). Kind of experiment: Inhibition of human recombinant PDE4D3 using [3H]cAMP as substrate incubated for 30 mins by scintillation proximity assay. In kind it is single protein.
Experiment [2] deals with 3',5'-cyclic-AMP phosphodiesterase 4B (Homo sapiens, UniProt Q07343). Briefly: Inhibition of human recombinant PDE4B1 using [3H]cAMP as substrate incubated for 30 mins by scintillation proximity assay.
3',5'-cyclic-AMP phosphodiesterase 4B, sequence (Q07343 whole entry): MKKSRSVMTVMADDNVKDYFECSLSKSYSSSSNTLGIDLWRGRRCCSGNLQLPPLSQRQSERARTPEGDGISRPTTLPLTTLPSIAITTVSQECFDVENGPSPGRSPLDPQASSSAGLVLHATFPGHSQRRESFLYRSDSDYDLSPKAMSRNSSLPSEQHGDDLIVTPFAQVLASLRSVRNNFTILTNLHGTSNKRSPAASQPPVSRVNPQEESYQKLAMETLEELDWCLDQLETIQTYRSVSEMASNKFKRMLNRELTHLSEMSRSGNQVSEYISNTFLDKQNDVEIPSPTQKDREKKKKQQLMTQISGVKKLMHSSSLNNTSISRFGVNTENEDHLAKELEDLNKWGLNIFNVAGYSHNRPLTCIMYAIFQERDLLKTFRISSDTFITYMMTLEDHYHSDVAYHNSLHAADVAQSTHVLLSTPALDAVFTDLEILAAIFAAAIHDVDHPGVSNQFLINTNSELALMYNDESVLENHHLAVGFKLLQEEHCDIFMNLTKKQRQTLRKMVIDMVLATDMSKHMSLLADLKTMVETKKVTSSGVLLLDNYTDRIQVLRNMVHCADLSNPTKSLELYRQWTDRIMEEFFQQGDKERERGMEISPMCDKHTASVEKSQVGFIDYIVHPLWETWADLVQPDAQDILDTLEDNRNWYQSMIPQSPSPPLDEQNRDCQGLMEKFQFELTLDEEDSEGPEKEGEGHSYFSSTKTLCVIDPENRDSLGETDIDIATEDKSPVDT

3',5'-cyclic-AMP phosphodiesterase 4D, sequence (Q08499 whole entry): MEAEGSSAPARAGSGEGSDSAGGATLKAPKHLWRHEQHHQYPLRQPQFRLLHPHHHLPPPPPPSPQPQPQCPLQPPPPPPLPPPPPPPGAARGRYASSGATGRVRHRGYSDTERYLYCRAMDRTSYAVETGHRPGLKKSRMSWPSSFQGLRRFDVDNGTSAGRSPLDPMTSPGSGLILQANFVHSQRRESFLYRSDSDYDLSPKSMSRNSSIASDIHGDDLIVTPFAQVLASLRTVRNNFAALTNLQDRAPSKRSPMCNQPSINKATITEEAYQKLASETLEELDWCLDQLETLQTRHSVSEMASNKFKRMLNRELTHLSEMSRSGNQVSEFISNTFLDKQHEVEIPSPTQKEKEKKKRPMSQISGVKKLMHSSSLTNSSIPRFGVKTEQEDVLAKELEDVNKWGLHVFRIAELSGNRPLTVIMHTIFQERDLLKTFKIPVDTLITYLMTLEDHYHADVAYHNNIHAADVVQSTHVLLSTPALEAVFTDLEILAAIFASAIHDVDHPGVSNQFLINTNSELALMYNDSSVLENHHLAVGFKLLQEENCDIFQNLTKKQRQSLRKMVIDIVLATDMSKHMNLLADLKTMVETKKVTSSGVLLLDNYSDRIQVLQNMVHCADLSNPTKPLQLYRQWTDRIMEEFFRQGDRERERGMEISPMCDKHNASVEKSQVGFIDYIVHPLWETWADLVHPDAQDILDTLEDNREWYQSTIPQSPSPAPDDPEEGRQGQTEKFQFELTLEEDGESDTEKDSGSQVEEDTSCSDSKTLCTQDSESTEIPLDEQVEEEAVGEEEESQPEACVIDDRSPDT

In the case of `COc1ccc(-c2c3n(c4cc(F)cnc24)C[C@H](CO)N(C2CC2)C3=O)cn1`, the IC50 is 10 nM in experiment [1] and less than 10 nM in experiment [2].

Turning to `O=C1c2c(-c3ccc(Cl)c(F)c3)c3ncccc3n2C[C@H](CO)N1C1CC1`, the values for the half-maximal inhibitory concentration (IC50) in experiment [1] and in experiment [2] were 10 nM and less than 10 nM, respectively.

As for `O=C1c2c(-c3ccc(F)c(F)c3)c3ncccc3n2C[C@@H](CO)N1C1CC1`, the 50% inhibitory concentration (IC50) was 10 nM in experiment [1] and less than 10 nM in experiment [2].

With `N#Cc1ccc(-c2c3n(c4cccnc24)C[C@@H](CO)N(C2CC2)C3=O)cc1F`, the figures for the IC50 in experiment [1] and in experiment [2] were 10 nM and less than 10 nM, respectively.

For `O=C1c2c(-c3ccc(Cl)c(F)c3)c3ncccc3n2CCN1CCO`, the figures for the IC50 in experiment [1] and in experiment [2] were 10 nM and less than 10 nM, respectively.

Take `C[C@@H]1Cn2c(c(-c3ccc(Cl)c(F)c3)c3ncccc32)C(=O)N1CCO`: the IC50 in experiment [1] and in experiment [2] was less than 10 nM throughout.

Source of the values: ChEMBL document CHEMBL6178004, “Novel Azaindole Compounds as Phosphodiesterase 4B Inhibitors for Treating Immune-Inflammatory Diseases or Disorders” (ACS Med Chem Lett, 2025).
